Results reported in the supplement of paper PMC10307832.

Legend:
Assay in all cases: relative viability (nuclei count vs DMSO), 5 days (fraction); higher = more cells survive
[1] = tested on: NCI-H1648
Procedure, shortened: (§1)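 Dosing by pin tool came one day after lung cancer cell lines were seeded in 1536-well plates, using either one drug or a fixed anchor-drug dose plus five library-drug doses (not always all listed) in √10 steps. After 5 days, nuclei were counted on 4× images. Relative viability is treated-well nuclei count divided by vehicle-well nuclei count, and values are medians of duplicate plates.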

[2] = tested on: SW 900
Procedure, shortened: as §1

[3] = tested on: NCI-H522
Procedure, shortened: as §1

[4] = tested on: NCI-H2342
Procedure, shortened: as §1

[5] = tested on: NCI-H1563
Procedure, shortened: as §1

Work on `O=C(O)CCCCC(CCSCc1ccccc1)SCc1ccccc1` (stereo not drawn) [CPI-613] + CC(=O)c1c(C)c2cnc(Nc3ccc(N4CCNCC4)cn3)nc2n(C2CCCC2)c1=O [Palbociclib] (partner 0.5 µM) yielded a relative viability ([1]; first compound 5 µM) of 0.285, a relative viability ([1]; first compound 15.81 µM) of 0.302 and a relative viability ([1]; first compound 50 µM) of 0.299. It also gave a relative viability ([1]; first compound 158.11 µM) of 0.192, a relative viability ([1]; first compound 500 µM) of 0.128 and a relative viability ([2]; first compound 5 µM) of 0.57. It also gave a relative viability ([2]; first compound 50 µM) of 0.557, a relative viability ([2]; first compound 158.11 µM) of 0.208 and a relative viability ([2]; first compound 500 µM) of 0.0276. It also gave a relative viability ([3]; first compound 5 µM) of 1.03, a relative viability ([3]; first compound 15.81 µM) of 1.13 and a relative viability ([3]; first compound 50 µM) of 1.08. For the same compound, the relative viability ([3]; first compound 158.11 µM) was 0.708, the relative viability ([3]; first compound 500 µM) was 0.301 and the relative viability ([4]; first compound 5 µM) was 0.497. It also gave a relative viability ([4]; first compound 15.81 µM) of 0.536, a relative viability ([4]; first compound 50 µM) of 0.492 and a relative viability ([4]; first compound 158.11 µM) of 0.52. It also gave a relative viability ([4]; first compound 500 µM) of 0.588.

For `O=C(O)CCCCC(CCSCc1ccccc1)SCc1ccccc1` (stereo not drawn) [CPI-613] + Nc1nc2[nH]cc(CCc3ccc(C(=O)N[C@@H](CCC(=O)O)C(=O)O)cc3)c2c(=O)[nH]1 [Pemetrexed] (partner 0.2 µM), the relative viability ([1]; first compound 5 µM) was 0.639, the relative viability ([1]; first compound 15.81 µM) was 0.623 and the relative viability ([1]; first compound 50 µM) was 0.823. For the same compound, the relative viability ([1]; first compound 158.11 µM) was 0.527, the relative viability ([1]; first compound 500 µM) was 0.139 and the relative viability ([2]; first compound 5 µM) was 0.451. The relative viability ([2]; first compound 50 µM) was 0.47, the relative viability ([2]; first compound 158.11 µM) was 0.372 and the relative viability ([2]; first compound 500 µM) was 0.0088. For the same compound, the relative viability ([3]; first compound 5 µM) was 1.04, the relative viability ([3]; first compound 15.81 µM) was 1.06 and the relative viability ([3]; first compound 50 µM) was 1.3. The relative viability ([3]; first compound 158.11 µM) was 0.857, the relative viability ([3]; first compound 500 µM) was 0.473 and the relative viability ([5]; first compound 5 µM) was 0.732. The relative viability ([5]; first compound 15.81 µM) was 0.713, the relative viability ([5]; first compound 50 µM) was 0.727 and the relative viability ([5]; first compound 158.11 µM) was 0.631. The relative viability ([5]; first compound 500 µM) was 0.394, the relative viability ([4]; first compound 5 µM) was 0.743 and the relative viability ([4]; first compound 15.81 µM) was 0.761. It also gave a relative viability ([4]; first compound 50 µM) of 0.804, a relative viability ([4]; first compound 158.11 µM) of 0.744 and a relative viability ([4]; first compound 500 µM) of 0.785.

`Cc1cnc(-c2cnc(NCCNc3ccc(C#N)cn3)nc2-c2ccc(Cl)cc2Cl)[nH]1` + CC(=O)c1c(C)c2cnc(Nc3ccc(N4CCNCC4)cn3)nc2n(C2CCCC2)c1=O [Palbociclib] (partner 0.5 µM) showed a relative viability ([1]; first compound 0.08 µM) of 0.267, a relative viability ([1]; first compound 0.253 µM) of 0.243 and a relative viability ([1]; first compound 0.8 µM) of 0.265. The relative viability ([1]; first compound 2.53 µM) was 0.265, the relative viability ([2]; first compound 0.08 µM) was 0.565 and the relative viability ([2]; first compound 0.253 µM) was 0.513. It also gave a relative viability ([2]; first compound 0.8 µM) of 0.528, a relative viability ([2]; first compound 2.53 µM) of 0.515 and a relative viability ([3]; first compound 0.08 µM) of 1.15. For the same compound, the relative viability ([3]; first compound 0.253 µM) was 0.927, the relative viability ([3]; first compound 0.8 µM) was 0.974 and the relative viability ([3]; first compound 2.53 µM) was 0.862. It also gave a relative viability ([4]; first compound 0.08 µM) of 0.522, a relative viability ([4]; first compound 0.253 µM) of 0.516 and a relative viability ([4]; first compound 0.8 µM) of 0.557. It also gave a relative viability ([4]; first compound 2.53 µM) of 0.463.

In the case of `O=C(O)CCCCC(CCSCc1ccccc1)SCc1ccccc1` (stereo not drawn) [CPI-613] + CC(=O)Nc1cccc(-n2c(=O)n(C3CC3)c(=O)c3c(Nc4ccc(I)cc4F)n(C)c(=O)c(C)c32)c1 [Trametinib] (partner 0.02 µM), the relative viability ([1]; first compound 5 µM) is reported as 0.454, the relative viability ([1]; first compound 15.81 µM) is reported as 0.376 and the relative viability ([1]; first compound 50 µM) is reported as 0.533. For the same compound, the relative viability ([1]; first compound 158.11 µM) was 0.218, the relative viability ([1]; first compound 500 µM) was 0.14 and the relative viability ([2]; first compound 5 µM) was 0.701. For the same compound, the relative viability ([2]; first compound 50 µM) was 0.706, the relative viability ([2]; first compound 158.11 µM) was 0.359 and the relative viability ([2]; first compound 500 µM) was 0.0323. For the same compound, the relative viability ([3]; first compound 5 µM) was 0.707, the relative viability ([3]; first compound 15.81 µM) was 0.739 and the relative viability ([3]; first compound 50 µM) was 0.751. The relative viability ([3]; first compound 158.11 µM) was 0.651, the relative viability ([3]; first compound 500 µM) was 0.284 and the relative viability ([4]; first compound 5 µM) was 0.747. For the same compound, the relative viability ([4]; first compound 15.81 µM) was 0.888, the relative viability ([4]; first compound 50 µM) was 0.977 and the relative viability ([4]; first compound 158.11 µM) was 0.786. For the same compound, the relative viability ([4]; first compound 500 µM) was 0.955.
